US20230136600A1, “Method and device for screening antigen epitope polypeptide” (priority 2020, published 2023)

Legend:
[1] = test system: novel coronavirus (live coronavirus), vero cells; assay: In-vitro live virus neutralization experiment with serum of immunized mice (CPE method); assay type: in vivo, SARS-CoV-2; settings: for Neutralizing antibody positive rate (%): Embodiment I: single peptide 100 μg + MF59 at Day 0, 14, 28, Balb/c mice, serum Day 35
Balb/c mice = assay: Polypeptide chip-based vaccine immunogenicity scoring system; assay type: in vivo; design: key to A2: whether the 95 percentile of the last sampling is increased compared with the end point: Y = rise; N = no rise; settings: for A: 95 percentile grouping number score / B: Mouse performance score: total score = 5; for C1: #A timing-sequence response peptide fragment set / C2: #B vaccine specificity peptide fragment set / C3: Intersection of A and B / C4: Percentage of the intersection in set B / C: Timing-sequence response and specificity score: value of the whole mix
[2] = Embodiment III, polypeptide-KLH
[3] = Embodiment III, polypeptide-KLH, Mix1-10
[4] = Embodiment III, polypeptide-KLH, A*3 + B*2 + C*1
[5] = adjuvant AddaVax, 7 peptides co-immunized in mice
[6] = adjuvant Adju-Phos, 7 peptides co-immunized in mice
[7] = adjuvant Alhydrogel, 7 peptides co-immunized in mice
[8] = adjuvant Imjet Alumn, 7 peptides co-immunized in mice
[9] = adjuvant MA103A, 7 peptides co-immunized in mice
[10] = adjuvant MA103B, 7 peptides co-immunized in mice

## SNLKPFER (SARS-CoV-2) [SEQ ID NO:36]
[1]
  Neutralizing antibody positive rate (%): 40%
[1]; Embodiment I: single peptide vaccines + MF59
  Neutralizing activity of serum to the novel coronavirus (in words): optimal neutralization effect
Balb/c mice; Embodiment II, Combination 2
  A2: whether the 95 percentile of the last sampling is increased compared with the end point: Y
  B1: D 0-D 14 95 percentile rise in the number of mice: 5
  B2: D 0-D 21 95 percentile rise in the number of mice: 5
  B3: D 14-D 21 95 percentile rise in the number of mice: 0
  B4: D 21-D 28 95 percentile rise in the number of mice: 2
  A: 95 percentile grouping number score: 1.5
  B: Mouse performance score: 3.4
Balb/c mice; Embodiment II, Combination 2, A*3 + B*2 + C*1
  Total single peptide: 11.8
Balb/c mice; Embodiment II, mice immunized with Combination 2
  A1: difference between a highest median and a D 0 median (95 percentile): 0.1
Balb/c mice; [2]
  B1: D 0-D 14 95 percentile rise in the number of mice: 3
  B2: D 0-D 21 95 percentile rise in the number of mice: 2
  B3: D 14-D 21 95 percentile rise in the number of mice: 0
  B4: D 21-D 28 95 percentile rise in the number of mice: 2
  A: 95 percentile grouping number score: 4.5
  B: Mouse performance score: 1.7
  C1: #A timing-sequence response peptide fragment set: 511
  C2: #B vaccine specificity peptide fragment set: 364
  C3: Intersection of A and B: 1
  C4: Percentage of the intersection in set B: 0.275
  C: Timing-sequence response and specificity score: 0.5
Balb/c mice; [3]
  A1: difference between a highest median and a D 0 median (95 percentile): 0.10
  A2: whether the 95 percentile of the last sampling is increased compared with the end point: Y
Balb/c mice; [4]
  Total single peptide: 17.4
Balb/c mice; [5]
  1) 95 percentile grouping number A: 3.5
  1) 95 percentile grouping number A1: 0.04
  2) Mouse performance B: 2.5
  2) Mouse performance B1: 3
  2) Mouse performance B2: 4
  2) Mouse performance B3: 2
  3) Timing-sequence response and specificity C: 0
  3) Timing-sequence response and specificity C1: 237
  3) Timing-sequence response and specificity C2: 1244
  3) Timing-sequence response and specificity C3: 0
  3) Timing-sequence response and specificity C4: 0.000
  Total single peptide: 15.5
Balb/c mice; [6]
  1) 95 percentile grouping number A: 3.5
  1) 95 percentile grouping number A1: 0.05
  2) Mouse performance B: 1.8
  2) Mouse performance B1: 2
  2) Mouse performance B2: 2
  2) Mouse performance B3: 2
  3) Timing-sequence response and specificity C: 0
  3) Timing-sequence response and specificity C1: 203
  3) Timing-sequence response and specificity C2: 1244
  3) Timing-sequence response and specificity C3: 0
  3) Timing-sequence response and specificity C4: 0.000
  Total single peptide: 14.1
Balb/c mice; [7]
  1) 95 percentile grouping number A: 0
  1) 95 percentile grouping number A1: 0
  2) Mouse performance B: 1.9
  2) Mouse performance B1: 3
  2) Mouse performance B2: 1
  2) Mouse performance B3: 2
  3) Timing-sequence response and specificity C: 1
  3) Timing-sequence response and specificity C1: 123
  3) Timing-sequence response and specificity C2: 1244
  3) Timing-sequence response and specificity C3: 2
  3) Timing-sequence response and specificity C4: 0.161
  Total single peptide: 4.3
Balb/c mice; [8]
  1) 95 percentile grouping number A: 4.5
  1) 95 percentile grouping number A1: 0.065
  2) Mouse performance B: 2.5
  2) Mouse performance B1: 5
  2) Mouse performance B2: 3
  2) Mouse performance B3: 1
  3) Timing-sequence response and specificity C: 1
  3) Timing-sequence response and specificity C1: 100
  3) Timing-sequence response and specificity C2: 1244
  3) Timing-sequence response and specificity C3: 3
  3) Timing-sequence response and specificity C4: 0.241
  Total single peptide: 19
Balb/c mice; [9]
  1) 95 percentile grouping number A: 4.5
  1) 95 percentile grouping number A1: 0.065
  2) Mouse performance B: 2.4
  2) Mouse performance B1: 4
  2) Mouse performance B2: 4
  2) Mouse performance B3: 1
  3) Timing-sequence response and specificity C: 1
  3) Timing-sequence response and specificity C1: 260
  3) Timing-sequence response and specificity C2: 1244
  3) Timing-sequence response and specificity C3: 3
  3) Timing-sequence response and specificity C4: 0.241
  Total single peptide: 18.8
Balb/c mice; [10]
  1) 95 percentile grouping number A: 5
  1) 95 percentile grouping number A1: 0.06
  2) Mouse performance B: 3.2
  2) Mouse performance B1: 4
  2) Mouse performance B2: 4
  2) Mouse performance B3: 3
  3) Timing-sequence response and specificity C: 0
  3) Timing-sequence response and specificity C1: 153
  3) Timing-sequence response and specificity C2: 1244
  3) Timing-sequence response and specificity C3: 0
  3) Timing-sequence response and specificity C4: 0.000
  Total single peptide: 21.4

## VYDPLQPEL (SARS-CoV-2) [SEQ ID NO:34]
[1]
  Neutralizing antibody positive rate (%): 20%
Balb/c mice; Embodiment II, Combination 1
  A2: whether the 95 percentile of the last sampling is increased compared with the end point: N
  B1: D 0-D 14 95 percentile rise in the number of mice: 5
  B2: D 0-D 21 95 percentile rise in the number of mice: 0
  B3: D 14-D 21 95 percentile rise in the number of mice: 0
  B4: D 21-D 28 95 percentile rise in the number of mice: 1
  A: 95 percentile grouping number score: 5
  B: Mouse performance score: 1.7
Balb/c mice; Embodiment II, Combination 1, A*3 + B*2 + C*1
  Total single peptide: 18.9
Balb/c mice; Embodiment II, mice immunized with Combination 1
  A1: difference between a highest median and a D 0 median (95 percentile): 0.21
Balb/c mice; [2]
  B1: D 0-D 14 95 percentile rise in the number of mice: 3
  B2: D 0-D 21 95 percentile rise in the number of mice: 3
  B3: D 14-D 21 95 percentile rise in the number of mice: 1
  B4: D 21-D 28 95 percentile rise in the number of mice: 0
  A: 95 percentile grouping number score: 3
  B: Mouse performance score: 1.7
  C1: #A timing-sequence response peptide fragment set: 823
  C2: #B vaccine specificity peptide fragment set: 398
  C3: Intersection of A and B: 7
  C4: Percentage of the intersection in set B: 1.759
  C: Timing-sequence response and specificity score: 1
Balb/c mice; [3]
  A1: difference between a highest median and a D 0 median (95 percentile): 0.08
  A2: whether the 95 percentile of the last sampling is increased compared with the end point: N
Balb/c mice; [4]
  Total single peptide: 13.4
Balb/c mice; [5]
  1) 95 percentile grouping number A: 3.5
  1) 95 percentile grouping number A1: 0.05
  2) Mouse performance B: 2.4
  2) Mouse performance B1: 4
  2) Mouse performance B2: 4
  2) Mouse performance B3: 1
  3) Timing-sequence response and specificity C: 0
  3) Timing-sequence response and specificity C1: 237
  3) Timing-sequence response and specificity C2: 1244
  3) Timing-sequence response and specificity C3: 0
  3) Timing-sequence response and specificity C4: 0.000
  Total single peptide: 15.3
Balb/c mice; [6]
  1) 95 percentile grouping number A: 5
  1) 95 percentile grouping number A1: 0.08
  2) Mouse performance B: 2.5
  2) Mouse performance B1: 3
  2) Mouse performance B2: 4
  2) Mouse performance B3: 2
  3) Timing-sequence response and specificity C: 0
  3) Timing-sequence response and specificity C1: 203
  3) Timing-sequence response and specificity C2: 1244
  3) Timing-sequence response and specificity C3: 0
  3) Timing-sequence response and specificity C4: 0.000
  Total single peptide: 20
Balb/c mice; [7]
  1) 95 percentile grouping number A: 5
  1) 95 percentile grouping number A1: 0.06
  2) Mouse performance B: 2.6
  2) Mouse performance B1: 4
  2) Mouse performance B2: 3
  2) Mouse performance B3: 2
  3) Timing-sequence response and specificity C: 1
  3) Timing-sequence response and specificity C1: 123
  3) Timing-sequence response and specificity C2: 1244
  3) Timing-sequence response and specificity C3: 2
  3) Timing-sequence response and specificity C4: 0.161
  Total single peptide: 20.7
Balb/c mice; [8]
  1) 95 percentile grouping number A: 5
  1) 95 percentile grouping number A1: 0.11
  2) Mouse performance B: 2.1
  2) Mouse performance B1: 5
  2) Mouse performance B2: 3
  2) Mouse performance B3: 0
  3) Timing-sequence response and specificity C: 1
  3) Timing-sequence response and specificity C1: 100
  3) Timing-sequence response and specificity C2: 1244
  3) Timing-sequence response and specificity C3: 3
  3) Timing-sequence response and specificity C4: 0.241
  Total single peptide: 19.7
Balb/c mice; [9]
  1) 95 percentile grouping number A: 5
  1) 95 percentile grouping number A1: 0.115
  2) Mouse performance B: 2.5
  2) Mouse performance B1: 5
  2) Mouse performance B2: 5
  2) Mouse performance B3: 0
  3) Timing-sequence response and specificity C: 1
  3) Timing-sequence response and specificity C1: 260
  3) Timing-sequence response and specificity C2: 1244
  3) Timing-sequence response and specificity C3: 3
  3) Timing-sequence response and specificity C4: 0.241
  Total single peptide: 20.5
Balb/c mice; [10]
  1) 95 percentile grouping number A: 5
  1) 95 percentile grouping number A1: 0.095
  2) Mouse performance B: 4.2
  2) Mouse performance B1: 4
  2) Mouse performance B2: 5
  2) Mouse performance B3: 5
  3) Timing-sequence response and specificity C: 0
  3) Timing-sequence response and specificity C1: 153
  3) Timing-sequence response and specificity C2: 1244
  3) Timing-sequence response and specificity C3: 0
  3) Timing-sequence response and specificity C4: 0.000
  Total single peptide: 23.4
